In one test the target is T1, LRRK2 G2019S (Homo sapiens, UniProt Q5S007, G2019S).
T1 construct: purchased Life Technologies PV4881
Kind of test: LRRK2 Kinase Activity Assay (LanthaScreen TR-FRET), G2019S. The test is classed as biochemical. The settings on record: recombinant G2019S-LRRK2, 25 μM ATP, 400 nM LRRKtide, 60 min; class symbols. The method, boiled down:
(§1)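 Recombinant wild-type or G2019S LRRK2 incubated with fluorescein-labeled LRRKtide (ERM-based) peptide, ATP and serially diluted compound for 60 min at room temperature.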

The target in a further test is T2, LRRK2 WT (Homo sapiens, UniProt Q5S007).
T2 construct: purchased Life Technologies PR8604B
The test can be described thus: LRRK2 Kinase Activity Assay (LanthaScreen TR-FRET), wild type. The test is classed as biochemical. The settings on record: recombinant wild type LRRK2, 25 μM ATP, 400 nM LRRKtide, 60 min; class symbols. The method, boiled down: as §1

The source of these data is US20230148214A1, “INDAZOLES AND AZAINDAZOLES AS LRRK2 INHIBITORS” (ESCAPE Bio, Inc., priority 2020, published 2023).

T2 sequence (Q5S007 whole entry): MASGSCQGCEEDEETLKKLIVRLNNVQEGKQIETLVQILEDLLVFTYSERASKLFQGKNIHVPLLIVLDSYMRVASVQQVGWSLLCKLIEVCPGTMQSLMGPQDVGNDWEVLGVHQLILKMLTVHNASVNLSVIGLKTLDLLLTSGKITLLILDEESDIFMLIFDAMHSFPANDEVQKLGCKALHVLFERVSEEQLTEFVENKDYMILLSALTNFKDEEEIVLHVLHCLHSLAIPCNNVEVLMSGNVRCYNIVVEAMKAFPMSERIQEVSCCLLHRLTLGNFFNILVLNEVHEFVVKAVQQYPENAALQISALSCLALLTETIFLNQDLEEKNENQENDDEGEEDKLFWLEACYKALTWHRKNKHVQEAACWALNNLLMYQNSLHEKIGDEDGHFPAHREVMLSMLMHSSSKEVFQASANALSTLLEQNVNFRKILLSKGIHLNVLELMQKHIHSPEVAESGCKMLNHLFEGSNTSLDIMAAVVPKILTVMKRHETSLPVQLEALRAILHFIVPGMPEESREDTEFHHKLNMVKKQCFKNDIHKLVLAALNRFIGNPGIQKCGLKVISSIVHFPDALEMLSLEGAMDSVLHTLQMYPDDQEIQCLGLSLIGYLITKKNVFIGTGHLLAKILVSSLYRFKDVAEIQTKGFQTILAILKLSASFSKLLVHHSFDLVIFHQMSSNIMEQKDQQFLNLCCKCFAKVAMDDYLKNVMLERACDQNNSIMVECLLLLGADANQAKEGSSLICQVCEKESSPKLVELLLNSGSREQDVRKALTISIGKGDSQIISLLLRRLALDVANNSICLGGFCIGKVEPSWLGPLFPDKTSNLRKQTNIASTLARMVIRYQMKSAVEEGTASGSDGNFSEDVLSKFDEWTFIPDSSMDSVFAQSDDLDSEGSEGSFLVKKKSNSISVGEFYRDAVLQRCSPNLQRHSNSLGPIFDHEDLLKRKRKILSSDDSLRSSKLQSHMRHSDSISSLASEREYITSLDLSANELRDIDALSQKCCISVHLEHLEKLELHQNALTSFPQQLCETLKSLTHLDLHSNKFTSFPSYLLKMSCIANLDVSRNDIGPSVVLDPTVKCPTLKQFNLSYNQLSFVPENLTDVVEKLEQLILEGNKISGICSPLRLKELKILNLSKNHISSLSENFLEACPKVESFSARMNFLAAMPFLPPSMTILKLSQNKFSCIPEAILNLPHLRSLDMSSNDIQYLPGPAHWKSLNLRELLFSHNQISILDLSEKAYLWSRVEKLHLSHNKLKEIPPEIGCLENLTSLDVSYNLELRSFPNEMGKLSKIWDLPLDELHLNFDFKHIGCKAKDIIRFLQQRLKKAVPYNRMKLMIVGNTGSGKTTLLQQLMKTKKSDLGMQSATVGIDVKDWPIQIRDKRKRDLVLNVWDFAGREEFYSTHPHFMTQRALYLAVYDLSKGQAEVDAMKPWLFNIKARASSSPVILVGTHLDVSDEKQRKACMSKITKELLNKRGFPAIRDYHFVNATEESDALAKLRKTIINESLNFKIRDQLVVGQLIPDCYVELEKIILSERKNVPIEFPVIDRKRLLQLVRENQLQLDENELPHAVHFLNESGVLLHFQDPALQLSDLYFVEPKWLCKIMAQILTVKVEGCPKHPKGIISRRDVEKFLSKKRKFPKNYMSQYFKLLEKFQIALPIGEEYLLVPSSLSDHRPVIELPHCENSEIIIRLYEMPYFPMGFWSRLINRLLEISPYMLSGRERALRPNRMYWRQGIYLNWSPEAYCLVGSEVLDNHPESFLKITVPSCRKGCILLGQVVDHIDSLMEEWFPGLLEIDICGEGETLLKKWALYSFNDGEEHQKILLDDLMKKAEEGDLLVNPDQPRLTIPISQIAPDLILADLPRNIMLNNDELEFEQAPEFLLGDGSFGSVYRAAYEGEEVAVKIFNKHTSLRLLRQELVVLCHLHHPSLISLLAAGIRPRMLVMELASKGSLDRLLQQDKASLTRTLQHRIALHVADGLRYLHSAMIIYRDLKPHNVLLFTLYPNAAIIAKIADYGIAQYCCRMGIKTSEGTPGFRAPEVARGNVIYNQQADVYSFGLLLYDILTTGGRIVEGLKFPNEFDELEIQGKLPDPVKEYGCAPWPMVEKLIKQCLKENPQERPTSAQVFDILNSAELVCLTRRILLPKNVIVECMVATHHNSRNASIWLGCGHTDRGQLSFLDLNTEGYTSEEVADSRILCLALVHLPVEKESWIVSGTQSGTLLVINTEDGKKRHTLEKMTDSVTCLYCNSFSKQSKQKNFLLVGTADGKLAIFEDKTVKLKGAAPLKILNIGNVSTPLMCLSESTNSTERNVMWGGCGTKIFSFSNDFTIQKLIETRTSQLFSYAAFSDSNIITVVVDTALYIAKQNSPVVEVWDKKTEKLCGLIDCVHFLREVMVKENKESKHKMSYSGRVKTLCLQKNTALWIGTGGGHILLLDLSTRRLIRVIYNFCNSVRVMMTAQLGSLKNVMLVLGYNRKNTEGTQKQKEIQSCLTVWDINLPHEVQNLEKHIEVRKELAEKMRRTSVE
T1 sequence (Q5S007 whole entry G2019S): as the sequence (Q5S007 whole entry) above, with G2019S counted along it

`Cc1ncc(-c2n[nH]c3ccc(O[C@H]4CCc5c4ccc(C#N)c5F)cc23)o1` (single isomer, unassigned) [Example 156, enantiomer 1, 4-Fluoro-1-((3-(2-methyloxazol-5-yl)-1H-indazol-5-yl)oxy)-2,3-dihydro-1H-indene-5-carbonitrile]: the IC50 on LRRK2 G2019S and on LRRK2 WT was < 0.1 µM in each case.
Consider `N#Cc1ccc2c(c1)CCC[C@@H]2Nc1ccc2[nH]nc(-c3ccn[nH]3)c2c1` (single isomer, unassigned) [Example 157, enantiomer 1, 5-((3-(1H-Pyrazol-5-yl)-1H-indazol-5-yl)amino)-5,6,7,8-tetrahydronaphthalene-2-carbonitrile], for which the IC50 on LRRK2 G2019S and on LRRK2 WT was 0.1 to 1 µM throughout.
On to `N#Cc1ccc2c(c1)CCC[C@@H]2Nc1ccc2[nH]nc(-c3ccn[nH]3)c2c1` (single isomer, unassigned) [Example 157, enantiomer 2, 5-((3-(1H-Pyrazol-5-yl)-1H-indazol-5-yl)amino)-5,6,7,8-tetrahydronaphthalene-2-carbonitrile], for which the IC50 on LRRK2 G2019S and at LRRK2 WT was < 0.1 µM each time.
As to `Cc1cc(-c2n[nH]c3ccc(N[C@H]4CCCc5cc(C#N)cnc54)cc23)sn1` (single isomer, unassigned) [Example 158, enantiomer 1, 8-((3-(3-Methylisothiazol-5-yl)-1H-indazol-5-yl)amino)-5,6,7,8-tetrahydroquinoline-3-carbonitrile], the IC50 on LRRK2 G2019S and on LRRK2 WT was < 0.1 µM throughout.
Turning to `Cc1ncc(-c2n[nH]c3ccc(N[C@H]4CCCc5cc(C#N)c(C)nc54)cc23)o1` (single isomer, unassigned) [Example 159, enantiomer 1, 2-Methyl-8-((3-(2-methyloxazol-5-yl)-1H-indazol-5-yl)amino)-5,6,7,8-tetrahydroquinoline-3-carbonitrile], the IC50 at LRRK2 G2019S and on LRRK2 WT was < 0.1 µM throughout.
As for `Cc1ncc(-c2n[nH]c3ccc(O[C@H]4CCc5cc(C#N)c(F)cc54)cc23)o1` (single isomer, unassigned) [Example 160, enantiomer 1, 6-Fluoro-1-((3-(2-methyloxazol-5-yl)-1H-indazol-5-yl)oxy)-2,3-dihydro-1H-indene-5-carbonitrile], the half-inhibitory concentration (IC50) at LRRK2 G2019S and at LRRK2 WT was < 0.1 µM each time.
On to `N#Cc1cnc2c(c1)CCC[C@@H]2Oc1ccc2[nH]nc(-c3cnccn3)c2c1` (single isomer, unassigned) [Example 161, enantiomer 1, 8-((3-(Pyrazin-2-yl)-1H-indazol-5-yl)oxy)-5,6,7,8-tetrahydroquinoline-3-carbonitrile], for which the IC50 at LRRK2 G2019S and on LRRK2 WT was < 0.1 µM each time.
With `N#Cc1cnc2c(c1)CCC[C@@H]2Oc1ccc2[nH]nc(-c3cnccn3)c2c1` (single isomer, unassigned) [Example 161, enantiomer 2, 8-((3-(Pyrazin-2-yl)-1H-indazol-5-yl)oxy)-5,6,7,8-tetrahydroquinoline-3-carbonitrile], the IC50 on LRRK2 G2019S is < 0.1 µM; at LRRK2 WT it was 0.1 to 1 µM.
The matching figures for `[2H][C@]1(Nc2ccc3[nH]nc(-c4cnco4)c3c2)CCCc2cc(C#N)cnc21` (single isomer, unassigned) [Example 162, enantiomer 1, 8-Deuterio-8-((3-(oxazol-5-yl)-1H-indazol-5-yl)amino)-5,6,7,8-tetrahydroquinoline-3-carbonitrile]: 0.1 to 1 µM and 0.1 to 1 µM.
Take `[2H][C@]1(Nc2ccc3[nH]nc(-c4cnco4)c3c2)CCCc2cc(C#N)cnc21` (single isomer, unassigned) [Example 162, enantiomer 2, 8-Deuterio-8-((3-(oxazol-5-yl)-1H-indazol-5-yl)amino)-5,6,7,8-tetrahydroquinoline-3-carbonitrile]: the concentration for half-maximal inhibition (IC50) on LRRK2 G2019S and on LRRK2 WT was < 0.1 µM each time.
Regarding `N#Cc1cnc2c(n1)CCC[C@@H]2Oc1ccc2[nH]nc(-c3cnco3)c2c1` (single isomer, unassigned) [Example 163, enantiomer 1, 5-[[3-(1,3-Oxazol-5-yl)-1H-indazol-5-yl]oxy]-5,6,7,8-tetrahydroquinoxaline-2-carbonitrile], the figures for the IC50 at LRRK2 G2019S and at LRRK2 WT were < 0.1 µM and 0.1 to 1 µM, respectively.
The matching figures for `Cc1nc2c(c(C)c1C#N)CCC[C@@H]2Nc1ccc2[nH]nc(-c3cnco3)c2c1` (single isomer, unassigned) [Example 164, enantiomer 1, 2,4-Dimethyl-8-[[3-(1,3-oxazol-5-yl)-1H-indazol-5-yl]amino]-5,6,7,8-tetrahydroquinoline-3-carbonitrile]: < 0.1 µM and 0.1 to 1 µM.
As to `COc1nc2c(c(C)c1C#N)CCC[C@@H]2Nc1ccc2[nH]nc(-c3cnco3)c2c1` (single isomer, unassigned) [Example 165, enantiomer 1, 2-Methoxy-4-methyl-8-[[3-(1,3-oxazol-5-yl)-1H-indazol-5-yl]amino]-5,6,7,8-tetrahydroquinoline-3-carbonitrile], the IC50 on LRRK2 G2019S is < 0.1 µM; on LRRK2 WT, 0.1 to 1 µM.
For `Cc1c(C#N)c(Cl)nc2c1CC[C@@H]2Oc1ccc2[nH]nc(-c3cnco3)c2c1` (single isomer, unassigned) [Example 166, enantiomer 1, 2-Chloro-4-methyl-7-[[3-(1,3-oxazol-5-yl)-1H-indazol-5-yl]oxy]-6,7-dihydro-5H-cyclopenta[b]pyridine-3-carbonitrile], the IC50 on LRRK2 G2019S and at LRRK2 WT was < 0.1 µM each time.
On to `N#Cc1c(F)cc2c(c1F)CC[C@@H]2Oc1ccc2[nH]nc(-c3cnco3)c2c1` (single isomer, unassigned) [Example 167, enantiomer 1, 4,6-Difluoro-1-[[3-(1,3-oxazol-5-yl)-1H-indazol-5-yl]oxy]-2,3-dihydro-1H-indene-5-carbonitrile], for which the IC50 was < 0.1 µM on LRRK2 G2019S and 0.1 to 1 µM on LRRK2 WT.
Taken in the same sequence, the figures for `C[C@@H]1C[C@@H](Nc2ccc3[nH]nc(-c4cnco4)c3c2)c2ccc(C#N)cc21` (single isomer, unassigned) [Example 168, enantiomer 1, trans-3-Methyl-1-[[3-(1,3-oxazol-5-yl)-1H-indazol-5-yl]amino]-2,3-dihydro-1H-indene-5-carbonitrile] were < 0.1 µM and 0.1 to 1 µM.
Taken in the same sequence, the figures for `C[C@@H]1C[C@@H](Nc2ccc3[nH]nc(-c4cnco4)c3c2)c2ccc(C#N)cc21` (single isomer, unassigned) [Example 168, enantiomer 2, trans-3-Methyl-1-[[3-(1,3-oxazol-5-yl)-1H-indazol-5-yl]amino]-2,3-dihydro-1H-indene-5-carbonitrile] were < 0.1 µM and 0.1 to 1 µM.
Consider `C[C@H]1C[C@@H](Nc2ccc3[nH]nc(-c4cnco4)c3c2)c2ccc(C#N)cc21` (single isomer, unassigned) [Example 169, enantiomer 1, cis-3-Methyl-1-[[3-(1,3-oxazol-5-yl)-1H-indazol-5-yl]amino]-2,3-dihydro-1H-indene-5-carbonitrile], for which the results for the IC50 at LRRK2 G2019S and at LRRK2 WT were < 0.1 µM and 0.1 to 1 µM, respectively.
Taken in the same sequence, the figures for `C[C@H]1C[C@@H](Nc2ccc3[nH]nc(-c4cnco4)c3c2)c2ccc(C#N)cc21` (single isomer, unassigned) [Example 169, enantiomer 2, cis-3-Methyl-1-[[3-(1,3-oxazol-5-yl)-1H-indazol-5-yl]amino]-2,3-dihydro-1H-indene-5-carbonitrile] were < 0.1 µM and 0.1 to 1 µM.
Turning to `Cc1nc2c(c(C)c1C#N)CC[C@@H]2Nc1ccc2[nH]nc(-c3cnco3)c2c1` (single isomer, unassigned) [Example 170, enantiomer 1, 2,4-Dimethyl-7-[[3-(1,3-oxazol-5-yl)-1H-indazol-5-yl]amino]-6,7-dihydro-5H-cyclopenta[b]pyridine-3-carbonitrile], the half-inhibitory concentration (IC50) on LRRK2 G2019S and at LRRK2 WT was < 0.1 µM each time.
Regarding `Cc1nc2c(c(C)c1C#N)CC[C@@H]2Nc1ccc2[nH]nc(-c3cnco3)c2c1` (single isomer, unassigned) [Example 170, enantiomer 2, 2,4-Dimethyl-7-[[3-(1,3-oxazol-5-yl)-1H-indazol-5-yl]amino]-6,7-dihydro-5H-cyclopenta[b]pyridine-3-carbonitrile], the IC50 at LRRK2 G2019S is < 0.1 µM; at LRRK2 WT, 0.1 to 1 µM.
The matching figures for `N#Cc1cc2c(nc1Cl)[C@@H](Oc1ccc3[nH]nc(-c4cnco4)c3c1)CC2` (single isomer, unassigned) [Example 171, enantiomer 1, 2-Chloro-7-[[3-(1,3-oxazol-5-yl)-1H-indazol-5-yl]oxy]-6,7-dihydro-5H-cyclopenta[b]pyridine-3-carbonitrile]: < 0.1 µM and < 0.1 µM.
The matching figures for `CC1(C)Cc2cc(C#N)cnc2[C@H]1Nc1ccc2[nH]nc(-c3cnco3)c2c1` (single isomer, unassigned) [Example 172, enantiomer 1, 6,6-Dimethyl-7-[[3-(1,3-oxazol-5-yl)-1H-indazol-5-yl]amino]-5,7-dihydrocyclopenta[b]pyridine-3-carbonitrile]: 0.1 to 1 µM and 0.1 to 1 µM.
Taken in the same sequence, the figures for `CC1(C)Cc2cc(C#N)cnc2[C@H]1Nc1ccc2[nH]nc(-c3cnco3)c2c1` (single isomer, unassigned) [Example 172, enantiomer 2, 6,6-Dimethyl-7-[[3-(1,3-oxazol-5-yl)-1H-indazol-5-yl]amino]-5,7-dihydrocyclopenta[b]pyridine-3-carbonitrile] were < 0.1 µM and < 0.1 µM.
Take `C[C@H]1CCc2cc(C#N)ccc2[C@H]1Nc1ccc2[nH]nc(-c3cnco3)c2c1` (single isomer, unassigned) [Example 173, enantiomer 1, cis-6-Methyl-5-((3-(oxazol-5-yl)-1H-indazol-5-yl)amino)-5,6,7,8-tetrahydronaphthalene-2-carbonitrile]: the half-maximal inhibitory concentration (IC50) on LRRK2 G2019S and on LRRK2 WT was < 0.1 µM each time.
